The record followed here is patent US20200270225A1, “Chiral Diacylhydrazine Ligands for Modulating the Expression of Exogenous Genes via an Ecdysone Receptor Complex” (Intrexon Corporation, priority 2007, published 2020).

The test system of data set [1] is IL-12 transgene in transduced AdDCs. Briefly: In vitro IL-12 transgene induction by transduced AdDCs from healthy volunteers. It counts as cell-based, human. Conditions: observed in 2 out of the 3 AdDC preparations. As to the method: Immature DCs are harvested, counted and tested for viability. Approximately 6-7×10^7 DCs are transduced with the adenoviral vector at the optimal multiplicity of infection (the optimal MOI, between 500 and 1000, to be finalized) for the optimal viral adsorption time (between 2 h and 4 h, to be finalized). After transduction, the cells are washed repeatedly to remove any unadsorbed viral particles. Aliquots are set aside for sterility, endotoxin, mycoplasma, DC Phenotype and IL-12 transgene induction assays. The target dose of 5×10^7 cells is held at 4° C. in saline until release testing is complete.
The in vitro testing of the IL-12 transgene induction by the transduced AdDCs takes a minimum of two days for the results to be available and therefore IL-12 production in response to (R)-2-ethyl-3-methoxy-benzoic acid N′-(1-tert-butyl-butyl)-N′-(3,5-dimethyl-benzoyl)-hydrazide will not be a release criterion for the intratumoral injection of the AdDCs. […] Therefore, the in vitro IL-12 induction results are used for analysis of the treatment outcome. As such, the transduced AdDCs are used for injection after viral transduction and washing. Any left-over untransduced and transduced DCs are cryopreserved for future analysis as necessary.

Data set [2] deals with B16 melanoma. Briefly: Anti-tumor efficacy with intratumoral transduced DCs in B16 melanoma mouse model. It is filed as in vivo, C57/BL6 mice. The procedure:
A comparative analysis of various administration routes and doses of (R)-2-ethyl-3-methoxy-benzoic acid N′-(1-tert-butyl-butyl)-N′-(3,5-dimethylbenzoyl)-hydrazide on the anti-tumor efficacy of intra-tumorally delivered DCs transduced with an adenoviral vector encoding murine interleukin-12p70 (DC-SP1(IL-12p70)) were carried out in a B16 melanoma mouse model. […] Optimal anti-tumor effects occurred at ≥30 mg/kg (R)-2-ethyl-3-methoxy-benzoic acid N′-(1-tert-butyl-butyl)-N′-(3,5-dimethyl-benzoyl)-hydrazide dose administered with (DC-SP1(IL-12p70)) therapy.
This drug dependent effect was associated with: transgene expression in the tumor and DLN; prolonged Ad-DCs survival in the tumor microenvironment; migration and persistence of AdDCs in the DLN; and induction of anti B16 CD8+ T cells.
When tumor-free animals were re-challenged, on day 50 (post-initial tumor inoculation), these animals were refractory to B16 melanoma, but not MC38 colon carcinoma, progression.

Data set [3] is described as follows: Microsomal metabolism. Conditions: 5 μM, 1.0 mg/mL microsomal protein, 1 mM NADPH, 60 minutes. It is filed as in vitro ADME, human. The procedure:
The test compounds were prepared as 5 μM solutions in DMSO (concentration less than 0.25%), methanol, or acctonitrile. Mixed gender human liver microsomes were pooled from a ≥10 donors, and incubated with 1 mM NADPH. The test compound was incubated at 37° C. in buffer containing 1.0 mg/mL of microsomal protein with 1 mM NADPH. At 0 and 60 minutes, the mixture was sampled and monitored by LC/MS/MS for the peak area corresponding to the test compound, with the range of 10-100%. The assay was run in duplicate (N=2 separate incubations). The data reported in FIG. 15 is percent remaining of testosterone standard and percent remaining of the test compound.

The nature of data set [4]: Solubility in aqueous polysorbate 80, Assay 4. It is filed as physicochemical. An excerpt: Equilibrium solubility in formulation excipients and biological fluids influences drug bioavailability, although kinetics of dissolution may also be a limiting factor in determining bioavailability. The solubilities of R enantiomer and racemate of 2-ethyl-3-methoxy-benzoic acid N′-(1-tert-butyl-butyl)-N′-(3,5-dimethyl-benzoyl)-hydrazide were established quantitatively in aqueous preparations of the pharmaceutical surfactant polysorbate 80 and then the intrinsic dissolution rate of compacted test substance was observed. Mixtures of racemate and R enantiomer in 0.5%, 1%, and 1.5% polysorbate 80 solutions were prepared by addition of 20+/−1 mg test substance in a 2 mL Eppendorf vial, followed by 500 mg polysorbate solution. The mixture was bead-beaten for 120 second, shaken at 25° C. for 16 to 24 hours, and filtered using a Spin-X (0.2 μM). The pH of the filtrate was recorded. The concentration of test substance in the filtrate was measured by quantitative HPLC analysis (FIG. 12). The R enantiomer is 2-3× more soluble in 1.0 and 1.5% polysorbate 80 solutions.

A short description of data set [5]: Solubility in pharmaceutical excipients, Assay 1 (qualitative). It is filed as physicochemical. As to the method:
The solubility of micronized R enantiomer and racemate of 2-Ethyl-3-methoxy-benzoic acid N′-(1-tert-butyl-butyl)-N′-(3,5-dimethyl-benzoyl)-hydrazide was assessed qualitatively in commercially-available excipients (FIG. 9). Initial solutions/suspensions of 10 mg/g (test article/excipient) in glass vials were prepared by sonication at room temperature for 15 minutes with swirling for 30 seconds at 5 minute intervals, followed by heating in an aluminum block at 50° C. for 12 minutes with swirling for 30 seconds at 3 minute intervals. Based on the appearance of this initial 10 mg/g excipient sample, a 2-4 point concentration continuum was scanned by up or down sampling at several of the following points: 5, 10, 15, 20, 30, 50 mg/g (test article/excipient). […] Photos of several of the preparations in clear glass vials were taken (not shown).

In data set [6] the test system is Caco-2 cell monolayers. Description: Bidirectional permeability through Caco-2 cell monolayers. It counts as in vitro ADME. As to the method:
The test compounds were prepared as 5 μM in HBSSg with a maximum DMSO concentration <1%. Confluent monolayers of Caco-2 cells, 21 to 28 days old were prepared. The receiver well was prepared with 1% BSA in modified Hanks buffer HBSSg, and the apical and basolateral sides of Caco-2 cell were maintained at pH 7.4±0.2. Two monolayers were dosed in each direction (N=2): the apical side was dosed for (A→B) assessment and the basolateral side was dosed for (B→A) assessment. The test compound concentration was measured for both apical and basolateral sides at a time point of 120 minutes using a generic LC/MS/MS method with a minimum 4 point calibration curve. The values in FIG. 13 are: the percent recovery of the test compound from Transwell® wells containing Caco-2 cell monolayers; apparent permeability (Papp) in both directions; efflux ratio (Papp B→A)/(Papp A→B); absorption potential of a test compound classified as either Low or High; efflux classification is significant when efflux ≥3.0 and Papp (B→A)≥1.0×10-6 cm/s. […] Also, the efflux rate for the R enantiomer is lower.
For orientation: Passage across Caco-2 layers is used to estimate intestinal permeability.

`CCC[C@@H](N(NC(=O)c1cccc(OC)c1CC)C(=O)c1cc(C)cc(C)c1)C(C)(C)C` [Example 1, (R)-3,5-Dimethyl-benzoic Acid N-(1-tert-butyl-butyl)-N′-(2-ethyl-3-methoxy-benzoyl)-hydrazide]: in data set [1], the “induced IL-12 expression level” value was determined as 80 ng/million cells/24 h. Moreover, the “protective immunity on tumor re-challenge” value in data set [2] (10^7 AdDCs plus 13 day ligand treatment, re-challenge day 50) was “protective immunity that was tumor-specific”. Besides, the “tumor regression and animal survival” value in data set [2] (intratumoral AdDCs carrying murine IL-12, systemic ligand within 48 hours following AdDCs injection) is “complete regression of tumor and prolonged animal survival”. In addition, the “dose for optimal anti-tumor effects” value in data set [2] (with DC-SP1(IL-12p70) therapy) is on record as at least 30 mg/kg. Besides, the anti-tumor efficacy entry in data set [2] (with DC-SP1(IL-12p70) therapy, i.p. injection, oral gavage or diet admix) is reported as “anti-tumor efficacy was demonstrated”. In addition, in data set [3], the “stability to metabolism in human liver microsomes, compared” value is recorded as “slightly more stable”. In addition, in data set [4] (1.0 and 1.5% polysorbate 80 solutions, 25° C.), the “solubility relative to racemate” value was 2-3 ×. Moreover, in data set [4] (deionized water and 0.5% polysorbate 80), the “solubility of racemate and R enantiomer compared” value is listed as “comparable”. Moreover, the “solubility in pharmaceutical excipients (qualitative)” value in data set [5] (all tested excipients except neat polysorbate 80, 5-50 mg/g) is listed as “more soluble than racemate”. Moreover, the “solubility in neat polysorbate 80 (qualitative)” value in data set [5] (neat polysorbate 80) is reported as “comparably soluble”. The “efflux rate, compared” value in data set [6] (Caco-2) is given as “lower”. Moreover, the “apparent permeability (Papp), compared” value in data set [6] (Caco-2, A→B and B→A, 5 μM, 120 minutes) was “more permeable than the racemate in both directions”.
